Measurements as given in BindingDB's records for doi:10.1021/jm00006a025 (Chungnam National University, 1995).

Biological target: T1, DNA topoisomerase 1 (Homo sapiens, UniProt P11387)
T1 sequence (P11387 whole entry): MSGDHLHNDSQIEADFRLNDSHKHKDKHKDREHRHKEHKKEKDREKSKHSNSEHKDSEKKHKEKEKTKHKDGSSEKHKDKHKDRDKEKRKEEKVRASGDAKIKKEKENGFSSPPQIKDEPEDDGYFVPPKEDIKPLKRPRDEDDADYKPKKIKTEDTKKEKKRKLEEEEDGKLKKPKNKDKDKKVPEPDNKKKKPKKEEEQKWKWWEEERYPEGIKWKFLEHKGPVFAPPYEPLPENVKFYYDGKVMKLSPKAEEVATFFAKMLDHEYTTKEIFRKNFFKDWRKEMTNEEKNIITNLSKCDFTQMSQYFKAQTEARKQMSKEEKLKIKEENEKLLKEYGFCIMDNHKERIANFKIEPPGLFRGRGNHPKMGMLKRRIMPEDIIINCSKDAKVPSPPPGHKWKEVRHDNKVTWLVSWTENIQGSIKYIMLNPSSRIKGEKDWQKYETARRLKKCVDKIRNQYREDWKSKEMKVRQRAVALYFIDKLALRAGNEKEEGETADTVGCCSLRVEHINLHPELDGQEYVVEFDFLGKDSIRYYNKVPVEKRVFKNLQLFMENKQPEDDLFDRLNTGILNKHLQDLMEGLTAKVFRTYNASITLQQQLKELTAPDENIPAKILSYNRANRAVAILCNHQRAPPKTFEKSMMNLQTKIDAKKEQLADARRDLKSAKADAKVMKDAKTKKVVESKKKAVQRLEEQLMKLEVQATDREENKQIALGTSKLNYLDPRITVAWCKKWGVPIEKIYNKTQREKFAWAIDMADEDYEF
Assay: Inhibitory activity against DNA topoisomerase-1 obtained from Hela cells

CCCCCCCC/C=C/CCCCCCCC(=O)OC(=CC=C(C)C)c1cc(O)c2c(O)ccc(O)c2c1O [(E)-Octadec-9-enoic acid (R)-1-(5,8-dihydroxy-1,4-dioxo-1,4-dihydro-naphthalen-2-yl)-4-methyl-pent-3-enyl ester] and CCCCC/C=C/C/C=C/CCCCCCCC(=O)OC(=CC=C(C)C)c1cc(O)c2c(O)ccc(O)c2c1O [(9E,12E)-Octadeca-9,12-dienoic acid (R)-1-(5,8-dihydroxy-1,4-dioxo-1,4-dihydro-naphthalen-2-yl)-4-methyl-pent-3-enyl ester] cannot be ordered by IC50: > 625 µM for the first, > 625 µM for the second.

First: CC(C)=CC=C(OC(=O)c1ccccc1)c1cc(O)c2c(O)ccc(O)c2c1O [(R)-1-(5,8-dihydroxy-1,4-dioxo-1,4-dihydronaphthalen-2-yl)-4-methylpent-3-enyl benzoate]
Second: CC(C)=CC=C(OC(=O)C(c1ccccc1)c1ccccc1)c1cc(O)c2c(O)ccc(O)c2c1O
The IC50 of the first is lower: 153 µM for the first, > 625 µM for the second. The first is the more potent here.

First: CC(C)=CC=C(OC(=O)C=C(C)C=CC=C(C)/C=C/C1=C(C)CCCC1(C)C)c1cc(O)c2c(O)ccc(O)c2c1O [(2Z,4E,6E,8E)-3,7-Dimethyl-9-(2,6,6-trimethyl-cyclohex-1-enyl)-nona-2,4,6,8-tetraenoic acid (R)-1-(5,8-dihydroxy-1,4-dioxo-1,4-dihydro-naphthalen-2-yl)-4-methyl-pent-3-enyl ester]
Second: CCC/C=C/C(=O)OC(=CC=C(C)C)c1cc(O)c2c(O)ccc(O)c2c1O [(E)-Hex-2-enoic acid (R)-1-(5,8-dihydroxy-1,4-dioxo-1,4-dihydro-naphthalen-2-yl)-4-methyl-pent-3-enyl ester]
The IC50 of the first is higher: > 625 µM for the first, 153 µM for the second. The second is the more potent here.

CCCCCCCCCCCCCCCCCC(=O)OC(=CC=C(C)C)c1cc(O)c2c(O)ccc(O)c2c1O [Octadecanoic acid (R)-1-(5,8-dihydroxy-1,4-dioxo-1,4-dihydro-naphthalen-2-yl)-4-methyl-pent-3-enyl ester] and CCCCCCCCCCCCCCCC(=O)OC(=CC=C(C)C)c1cc(O)c2c(O)ccc(O)c2c1O [Hexadecanoic acid (R)-1-(5,8-dihydroxy-1,4-dioxo-1,4-dihydro-naphthalen-2-yl)-4-methyl-pent-3-enyl ester] cannot be ordered by IC50: > 625 µM for the first, > 625 µM for the second.

CCCCCCCCC(=O)OC(=CC=C(C)C)c1cc(O)c2c(O)ccc(O)c2c1O [Nonanoic acid (R)-1-(5,8-dihydroxy-1,4-dioxo-1,4-dihydro-naphthalen-2-yl)-4-methyl-pent-3-enyl ester] and CCCCCCCCCC(=O)OC(=CC=C(C)C)c1cc(O)c2c(O)ccc(O)c2c1O [Decanoic acid (R)-1-(5,8-dihydroxy-1,4-dioxo-1,4-dihydro-naphthalen-2-yl)-4-methyl-pent-3-enyl ester] cannot be ordered by IC50: > 625 µM for the first, > 625 µM for the second.

CCCCC/C=C/C/C=C/C/C=C/CCCCC(=O)OC(=CC=C(C)C)c1cc(O)c2c(O)ccc(O)c2c1O [(6E,9E,12E)-Octadeca-6,9,12-trienoic acid (R)-1-(5,8-dihydroxy-1,4-dioxo-1,4-dihydro-naphthalen-2-yl)-4-methyl-pent-3-enyl ester] and CCCCCCCC(=O)OC(=CC=C(C)C)c1cc(O)c2c(O)ccc(O)c2c1O [Octanoic acid (R)-1-(5,8-dihydroxy-1,4-dioxo-1,4-dihydro-naphthalen-2-yl)-4-methyl-pent-3-enyl ester] cannot be ordered by IC50: > 625 µM for the first, > 625 µM for the second.

First: CC/C=C/CC(=O)OC(=CC=C(C)C)c1cc(O)c2c(O)ccc(O)c2c1O [(E)-Hex-3-enoic acid (R)-1-(5,8-dihydroxy-1,4-dioxo-1,4-dihydro-naphthalen-2-yl)-4-methyl-pent-3-enyl ester]
Second: CCCCCCCCCCCC(=O)OC(=CC=C(C)C)c1cc(O)c2c(O)ccc(O)c2c1O [Dodecanoic acid (R)-1-(5,8-dihydroxy-1,4-dioxo-1,4-dihydro-naphthalen-2-yl)-4-methyl-pent-3-enyl ester]
The IC50 of the first is lower: 153 µM for the first, > 625 µM for the second.
